“Also recorded” adds a separate entry of the source. Starred links: 1 amine or outer side, 2 acyl side, 3 side chain; linkers in the order of their positions; H or OH if unused. Positions of bridges follow the written chain, without caps; N, C: chain ends. Non-standard residues stand in square brackets, D forms with d. Residues, ends and D or L forms follow the SMILES beside them. Chains are numbered I, II in the order given. Actinocin(9to1) = Cc1c2oc3c(C)ccc(C(=O)[*:1])c3nc-2c(C(=O)[*:2])c(N)c1=O; NMeV = CN[C@H](C(=O)O)C(C)C; Sar = CNCC(=O)O
Key:
Ramos cells [1] = assay: Cell cycle analysis (BrdU / 7-AAD), Ramos; assay type: cell-based; conditions: for Cell cycle distribution / progression: Ramos; for BrdU incorporation into DNA: comparison treatments
Method: Methods: […] Thirty minutes prior to harvest, cultures were treated with 5-bromo-2′-deoxyuridine (BrdU) at a final concentration of 10 μM. Cells were isolated by centrifugation, washing once with 0.5% BSA in PBS, and the resulting cell pellets fixed using 0.5 mL Cytofix/Cytoperm reagent (BD Biosciences). […] Cells were stained using a fluorescein-conjugated anti-BrdU antibody (clone PRB1, E-Bioscience, San Diego, Calif.) and 7-AAD. Cell cycle occupancy was analyzed by flow cytometry using fluorescein signal as a measure of DNA synthesis and 7-AAD signal as a measure of DNA content. […] L. Shepherd & Assoc., San Fernando, Calif.).

Thioredoxin reductase = assay: Lipoate reduction (thioredoxin reductase activity) in intact A549 cells; assay type: cell-based, human; conditions: A549; actinomycin D 2.5 μg/mL or cycloheximide 10 μg/mL 1 hour prior, BSO 100 μM 24 hours prior
Method: Methods: Lipoate Reduction. Thioredoxin reductase activity was assessed by measuring the rate of lipoate reduction. In brief, A549 or PC3 cells (10,000 cells/well) were plated on 96-well plates and allowed to adhere overnight and grow two additional days until confluent. Cells were treated with MGd, zinc, or 5% mannitol for 2-4 hours, as indicated. Medium was removed, cells were washed with Hanks Balanced Salt Solution (HBSS), and a solution of 5 mM lipoic acid and 1 mM 5,5′-dithiobis(2-nitrobenzoic acid) in HBSS (100 μL/well) was added. Plates were incubated at ambient temperature in the dark. At chosen time intervals, plate absorbance was measured at 405-650 nm. Plate absorbances were normalized to wells containing neither exogenous zinc nor texaphyrin complex to allow plate-to-plate comparison. In some experiments, L-buthionine-[S,R]-sulfoximine (BSO, 100 μM) was added 24 hours prior to MGd or zinc treatment, to inhibit any contribution to lipoate reduction made by glutathione-dependent pathways (28). Actinomycin D (2.5 μg/mL) or cycloheximide (10 μg/mL), where present, was added 1 hour prior to texaphyrin or zinc treatment. Viability was checked on parallel plates using the tetrazolium dye 3-(4,5-dimethylthiazol-2-yl)-5-(3-carboxymethoxyphenyl)-2-(4-sulfophenyl)-2H-tetrazolium (MTS) following the manufacturers protocol (Promega Corp.).

[2] = tested on: metallothionein gene family members and ZnT1; assay: Northern blot analysis, A549 cultures; assay type: cell-based, human; conditions: for Metallothionein transcript levels: A549, 24 hours, 50 μM MGd, Zn(OAc)2 100 μM, CdCl2 50 μM, FIG. 2B
Method: Methods: Northern Blot Analysis—Plateau phase cultures of A549 cells were prepared as described above, except that T-25 flasks were used, and the number of cells initially plated scaled accordingly. Cultures were treated with 50 μM MGd, 5 μM Gd(OAc)3 or 5% mannitol for 4 hours, whereupon cultures were washed twice with PBS and RNA harvested as above. Alternatively, 7-day plateau phase A549 or PC3 cultures were treated with 50 μM MGd, 50-100 μM Zn(OAc)2, 50 μM CdCl2 or 5% mannitol for 24 hours (A549) or 4 hours (PC3) prior to washing and RNA analysis. Exponential phase Ramos cultures were treated for 6 hours. Northern blots were conducted and analyzed. Radio labeled metallothionein probe, designed to bind to a 113-bp region of 3′-UTR sequences from multiple metallothionein gene family members, was generated using 5′-[…]-3′ (forward) and 5′-[…]-3′ (reverse) PCR primers and the NEBlot kit (New England Biolabs, Inc.). Radio labeled ZnT1 probe was generated in a similar fashion using 5′-[…]-3′ (forward) and 5′-[…]-3′ (reverse) primers.

A549 cells = assay: Cell viability by propidium iodide exclusion, A549; conditions: A549, 24 hours; Zn(OAc)2 100 μM, CdCl2 50 μM, MGd 50 μM
Method: Methods: Cellular Viability. Cell viability was determined by using propidium iodide (PI) flow cytometric analysis. Cells from plateau phase cultures grown in T-25 flasks were harvested as described above, except that cells present in the growth medium and wash solution were isolated by centrifugation and included in the analysis. Cells were resuspended in 1 mL PBS, an aliquot of 3×10^5 cells transferred to a 4 mL tube, and the cells isolated by centrifugation. Cell pellets were resuspended in PBS supplemented with 2 μg/mL propidium iodide (Sigma), incubated for 5 minutes at ambient temperature, and subjected to flow cytometric analysis. Flow cytometry was performed on a FACSCalibur instrument and data were analyzed using the CellQuest Pro software package (BD Biosciences).

Ramos cells [3] = assay: Intracellular free zinc (FluoZin-3 fluorescence), Ramos; assay type: cell-based; conditions: hydrogen peroxide treatment
Method: Methods: Intracellular Free Zinc. The concentration of intracellular free zinc was assessed using the ion-specific fluorescent probe, FluoZin-3-AM™ (FluoZin-3, Molecular Probes, Inc.). […] Following treatment, cells were isolated by centrifugation. Cell pellets were washed and re-suspended in a solution of 0.5% BSA in PBS.

Ramos cells [4] = assay: Reactive oxygen species (DCFA to DCF), Ramos; assay type: cell-based; conditions: single agents
Method: Methods: Reactive oxygen species were measured in live cells as intracellular peroxides by monitoring the oxidation of 2′,7′-dichlorofluorescin-diacetate (DCFA) to 2′,7′-dichlorofluorescein (DCF) (Molecular Probes). Cells (1×10^6 per mL) were incubated in a solution of 1 μg per mL DCFA in 0.5% BSA in HBSS for 15 minutes at 37° C. Two mL additional 0.5% BSA in HBSS was added, cells were isolated by centrifugation, and the pellet re-suspended in a solution of 50 μg/mL 7-aminoactinomycin D (7-AAD) in 0.5% BSA in HBSS. Cell suspensions were incubated at ambient temperature for 2 to 3 minutes, and stored on ice until analysis. The fluorescent intensity in live (i.e., 7-AAD impermeable) cells was analyzed by flow cytometry.

HIF-1α = HIF-1α sandwich ELISA, Ramos; assay type: cell-based; conditions: four hours
Method: Methods: Total HIF-1α protein was detected by sandwich ELISA using the DuoSet IC™ HIF-1α ELISA kit obtained from R&D Systems (Minneapolis, Minn.). All incubations were carried out at ambient temperature. Briefly, 96-well plates were coated with HIF-1α capture antibody overnight prior to blocking with 5% BSA in wash buffer. Protein lysates (50 μg protein per well prepared according to the manufacturer's instructions) were added for 2 hours, whereupon plates were washed and a biotinylated detection antibody specific for HIF-1α was added. A streptavidin-horseradish peroxidase format was used for detection. The optical density at 450 minus […] was measured using a microplate reader (SpectraMax Plus, Molecular Devices, Palo Alto, Calif.). HIF-1α concentrations were calculated by linear regression using a standard curve prepared from HIF-1α standard supplied with the ELISA kit.

SMILES: NC(=O)NO [hydroxyurea]
- Cell cycle distribution / progression (Ramos cells [1]): allowed passage through G2M
- BrdU incorporation into DNA (Ramos cells [1]): inhibited BrdU incorporation

SMILES: CCCCS(=N)(=O)CCC(N)C(=O)O [BSO, L-buthionine-[S,R]-sulfoximine, reference compound]
- Effect of pre-treatment on the inhibition of lipoate reduction by MGd and zinc (Thioredoxin reductase): increased the degree of inhibition

SMILES: Cc1c2oc3c(C)ccc(C(=O)N[C@@H]4C(=O)N[C@H](C(C)C)C(=O)N5CCC[C@H]5C(=O)N(C)CC(=O)N(C)[C@@H](C(C)C)C(=O)O[C@@H]4C)c3nc-2c(C(=O)N[C@@H]2C(=O)N[C@H](C(C)C)C(=O)N3CCC[C@H]3C(=O)N(C)CC(=O)N(C)[C@@H](C(C)C)C(=O)O[C@@H]2C)c(N)c1=O [actinomycin D, reference compound] (I: T[dV]P[Sar][NMeV] / II: T[dV]P[Sar][NMeV]; ester I:1-I:C, II:1-II:C; linker I:N-II:N via Actinocin(9to1))
- Effect of pre-treatment on the inhibition of lipoate reduction by MGd and zinc (Thioredoxin reductase): restored the inhibitory effect

SMILES: [Cl][Cd][Cl] [CdCl2, reference compound]
- Metallothionein transcript levels [2]: significant increase
- Metallothionein transcript levels ([2]; listed as cadmium): raised; also recorded: high levels of metallothionein transcription
- Cellular viability (propidium iodide exclusion) (A549 cells): ca. 53%

SMILES: CC(=O)[O-].CC(=O)[O-].CC(=O)[O-].[Gd+3] [Gd(OAc)3, gadolinium acetate, reference compound]
- Induction of metallothionein gene family members and ZnT1 (Northern blot) ([2]; A549 plateau phase, 4 hours, 50 μM MGd or 5 μM Gd(OAc)3): induced only in cultures treated with MGd

SMILES: OO [hydrogen peroxide, reference compound]
- FluoZin-3 fluorescence (Ramos cells [3]): increased
- DCF signal (Ramos cells [4]): increased

SMILES: CC(=O)[O-].CC(=O)[O-].[Co+2] [cobalt acetate]
- Increase in total cellular HIF-1α levels (HIF-1α): increased

SMILES: O=c1[nH]c(=O)n([C@H]2C[C@H](O)[C@@H](CO)O2)cc1F [5-fluoro-2′-deoxyuridine]
- Cell cycle distribution / progression (Ramos cells [1]): accumulation of cells in G1/S
- BrdU incorporation into DNA (Ramos cells [1]): permitted BrdU incorporation into DNA

SMILES: C[C@@H]1C[C@@H]([C@H](O)CC2CC(=O)NC(=O)C2)C(=O)[C@@H](C)C1 [cycloheximide, reference compound]
- Effect of pre-treatment on the inhibition of lipoate reduction by MGd and zinc (Thioredoxin reductase): restored the inhibitory effect
